Some test systems named below: A549; ACHN; CCRF-CEM; COLO 205; DU-145; HOP-92; Hs-578T; IGROV-1; KM12; LOX IMVI; MCF7; MDA-MB-435; MOLT-4; NCI-H226; NCI-H460; OVCAR-3; OVCAR-5; OVCAR-8; SK-MEL-5; U-251.
What all share (test): NCI tumour cell line growth inhibition, 48 h

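Dose response: 5 concentrations. Exposure: 48 h. Format: 96-well plates. Endpoint: linear interpolation; highest concentration if not reached. GI50 = concentration required for 50% inhibition of growth.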 Calls of active or inactive are those of the source. No stated cut-off is given here; in the data, active = GI50 up to about 1.1 µM and inactive = higher. A value given as a limit tells only on which side of the number the result lay.

As for `COc1cc2c(OC)c(c1)CCCC1=CC(=O)C=C(CCC2)C1=O`, the GI50 in the assay on A549 was 58.7 µM (inactive); in the assay with ACHN, 47.5 µM (inactive); in the assay on CCRF-CEM it was 3.09 µM (inactive); with COLO 205, 21.9 µM (inactive); in the assay with DU-145, > 68.4 µM (inactive); with HOP-92 it was 5.6 µM (inactive). Also, the GI50 was 30.9 µM (inactive) with Hs-578T; 40.8 µM (inactive) with IGROV-1; 21.9 µM (inactive) in the assay with KM12; 16.6 µM (inactive) in the assay with LOX IMVI; 39 µM (inactive) in the assay on MCF7; 23.8 µM (inactive) in the assay on MDA-MB-435. Moreover, the GI50 was 2.72 µM (inactive) in the assay with MOLT-4; > 100 µM (inactive) in the assay with NCI-H226; 41.9 µM (inactive) in the assay with NCI-H460; 22.6 µM (inactive) in the assay with OVCAR-3; > 100 µM (inactive) with OVCAR-5; 20.4 µM (inactive) with OVCAR-8. In addition, the GI50 with SK-MEL-5 was 30.3 µM (inactive); in the assay on U-251, 40.1 µM (inactive).

As to `COc1cc(OCc2ccc3nc(OC)c(OC)nc3c2)cc(OC)c1OC`, the GI50 with A549 is > 10 µM (inactive); with ACHN it was > 10 µM (inactive); in the assay on CCRF-CEM, > 10 µM (inactive); with COLO 205 it was > 10 µM (inactive); in the assay on DU-145 it was > 10 µM (inactive); in the assay on HOP-92 it was 7.18 µM (inactive). The GI50 in the assay on Hs-578T, in the assay on IGROV-1, with KM12, in the assay on LOX IMVI, with MCF7 and with MDA-MB-435 was > 10 µM (inactive) throughout. Besides, the GI50 in the assay with MOLT-4, with NCI-H226, with NCI-H460, with OVCAR-3, in the assay with OVCAR-5 and with OVCAR-8 was > 10 µM (inactive) throughout. Besides, the GI50 in the assay with SK-MEL-5 and with U-251 was > 10 µM (inactive) each time.

Turning to `CNC1C(O)CC(OC2C/C=C(\C)C/C(C)=C/C=C/CCC(C)CNC(=O)/C=C/C=C/C2C)OC1C` (stereo not given), the GI50 is 0.504 µM (active) with A549; 1.5 µM (inactive) in the assay with ACHN; 0.153 µM (active) in the assay with CCRF-CEM; 0.202 µM (active) in the assay with COLO 205; 0.719 µM (active) with DU-145; 0.451 µM (active) in the assay on HOP-92. The GI50 in the assay with Hs-578T was 0.502 µM (active); in the assay with IGROV-1, 1.29 µM (inactive); with KM12, 0.432 µM (active); in the assay on LOX IMVI, 0.103 µM (active); in the assay on MCF7, 0.782 µM (active); in the assay with MDA-MB-435, 0.377 µM (active). In addition, the GI50 is 0.161 µM (active) in the assay on MOLT-4; 2.77 µM (inactive) in the assay with NCI-H226; 0.173 µM (active) in the assay on NCI-H460; 0.986 µM (active) with OVCAR-3; 1.18 µM (inactive) in the assay with OVCAR-5; 0.324 µM (active) with OVCAR-8. For the same compound, the GI50 is 0.811 µM (active) in the assay with SK-MEL-5 and 0.521 µM (active) in the assay on U-251.

With `N#CC(C#N)=C1SC(=N\c2ccccc2)/C(=N/c2ccccc2)N1c1ccccc1`, the GI50 was 58.9 µM (inactive) in the assay with A549; 20 µM (inactive) with ACHN; 2.09 µM (inactive) in the assay with CCRF-CEM; 10.1 µM (inactive) with COLO 205; 42.9 µM (inactive) in the assay on DU-145; 6.82 µM (inactive) in the assay on HOP-92. Besides, the GI50 in the assay on Hs-578T was 25.3 µM (inactive); in the assay with IGROV-1 it was 13.9 µM (inactive); in the assay on KM12 it was > 38.5 µM (inactive); with LOX IMVI, 10.7 µM (inactive); with MCF7, 13.4 µM (inactive); in the assay on MDA-MB-435, 10.6 µM (inactive). Also, the GI50 in the assay with MOLT-4 was 2.24 µM (inactive); in the assay with NCI-H226, 23.4 µM (inactive); in the assay with NCI-H460 it was 19.2 µM (inactive); with OVCAR-3 it was 2.37 µM (inactive); in the assay with OVCAR-5 it was 20.7 µM (inactive); in the assay with OVCAR-8, 22.6 µM (inactive). The GI50 was 14.3 µM (inactive) in the assay on SK-MEL-5 and 15.6 µM (inactive) in the assay on U-251.

On to `CCOC(=O)NC(Nc1cccc(F)c1)(C(F)(F)F)C(F)(F)F`, for which the GI50 in the assay with A549, with ACHN, in the assay with CCRF-CEM, with COLO 205, in the assay with DU-145 and in the assay with HOP-92 was > 100 µM (inactive) in each case. The GI50 in the assay on Hs-578T, in the assay on IGROV-1, in the assay on KM12, in the assay with LOX IMVI, in the assay with MCF7 and with MDA-MB-435 was > 100 µM (inactive) in each case. Besides, the GI50 in the assay on MOLT-4, with NCI-H226, in the assay on NCI-H460, with OVCAR-3, in the assay on OVCAR-5 and in the assay on OVCAR-8 was > 100 µM (inactive) each time. In addition, the GI50 with SK-MEL-5 and in the assay with U-251 was > 100 µM (inactive) in each case.

In the case of `Cc1ccc2ccc(O)cc2c1`, the GI50 was 72.4 µM (inactive) in the assay on A549; 53.6 µM (inactive) in the assay on ACHN; 23.9 µM (inactive) in the assay with CCRF-CEM; > 100 µM (inactive) with COLO 205; 91.6 µM (inactive) in the assay on DU-145; 24.9 µM (inactive) in the assay on HOP-92. Besides, the GI50 is 37.9 µM (inactive) in the assay on Hs-578T; 20.7 µM (inactive) in the assay with IGROV-1; 28.4 µM (inactive) in the assay with KM12; 30.2 µM (inactive) in the assay with LOX IMVI; 31.2 µM (inactive) with MCF7; 19 µM (inactive) in the assay on MDA-MB-435. Moreover, the GI50 in the assay with MOLT-4 is 22.6 µM (inactive); with NCI-H226, 39.3 µM (inactive); in the assay with NCI-H460 it was 89.1 µM (inactive); in the assay on OVCAR-3 it was 10.2 µM (inactive); in the assay on OVCAR-5 it was 55.8 µM (inactive); in the assay with OVCAR-8 it was 23.3 µM (inactive). Moreover, the GI50 is 57.4 µM (inactive) in the assay with SK-MEL-5 and 23.1 µM (inactive) with U-251.

As to `CCN(CC)C(=S)/N=C(\SC(=S)N(CC)CC)c1ccccc1`, the GI50 with A549 was 20.8 µM (inactive); with ACHN, > 68.2 µM (inactive); in the assay on CCRF-CEM it was 0.787 µM (active); with COLO 205 it was 0.522 µM (active); in the assay with DU-145, 27.9 µM (inactive); in the assay with HOP-92, > 100 µM (inactive). Besides, the GI50 was 35.4 µM (inactive) in the assay on Hs-578T; 21.4 µM (inactive) with IGROV-1; 7.96 µM (inactive) in the assay on KM12; 15.1 µM (inactive) with LOX IMVI; 3.6 µM (inactive) in the assay with MCF7; > 59 µM (inactive) with MDA-MB-435. Moreover, the GI50 is 18.6 µM (inactive) in the assay on MOLT-4; 28.5 µM (inactive) with NCI-H226; 6.1 µM (inactive) in the assay with NCI-H460; 28.2 µM (inactive) with OVCAR-3; > 80 µM (inactive) in the assay on OVCAR-5; 56 µM (inactive) in the assay on OVCAR-8. The results for the GI50 in the assay with SK-MEL-5 and with U-251 were 0.569 µM (active) and 58.5 µM (inactive), respectively.

Regarding `COC(=O)C1([C@@H]2C[C@@H](O)[C@]3(C)CC/C=C(\C)CCC[C@H](C)[C@H](O)[C@@H]2O3)CC1`, the GI50 in the assay with A549 was 33.9 µM (inactive); with ACHN it was 24.8 µM (inactive); in the assay on CCRF-CEM, > 100 µM (inactive); in the assay with COLO 205, 57 µM (inactive); with DU-145, 66.8 µM (inactive); in the assay with HOP-92, 96.4 µM (inactive). Also, the GI50 is 63.2 µM (inactive) in the assay on Hs-578T; 37.3 µM (inactive) in the assay with IGROV-1; 60.4 µM (inactive) in the assay on KM12; 61.4 µM (inactive) with LOX IMVI; 41.9 µM (inactive) with MCF7; 77.6 µM (inactive) with MDA-MB-435. In addition, the GI50 is 26.5 µM (inactive) in the assay on MOLT-4; 27.2 µM (inactive) in the assay on NCI-H226; 32.7 µM (inactive) in the assay on NCI-H460; 51.4 µM (inactive) with OVCAR-3; 80.5 µM (inactive) in the assay on OVCAR-5; 88.9 µM (inactive) in the assay with OVCAR-8. The GI50 is 39.4 µM (inactive) in the assay with SK-MEL-5 and 71.9 µM (inactive) in the assay with U-251.

Take `Clc1cc(-c2ccccc2)nc2ccccc12`: the GI50 in the assay on A549 is 35.6 µM (inactive); in the assay with ACHN it was 38.5 µM (inactive); with CCRF-CEM it was 23.8 µM (inactive); in the assay with COLO 205, 19.5 µM (inactive); with DU-145 it was 40.6 µM (inactive); in the assay with HOP-92, 36.8 µM (inactive). For the same compound, the GI50 in the assay with Hs-578T is 30.1 µM (inactive); in the assay on IGROV-1, 15.1 µM (inactive); in the assay with KM12, 28.1 µM (inactive); in the assay on LOX IMVI it was 40 µM (inactive); in the assay on MCF7, 23.7 µM (inactive); in the assay on MDA-MB-435 it was 26.2 µM (inactive). Further, the GI50 in the assay with MOLT-4 is 22.1 µM (inactive); in the assay with NCI-H226, 28.4 µM (inactive); in the assay on NCI-H460, 35.5 µM (inactive); in the assay with OVCAR-3 it was 49.9 µM (inactive); in the assay on OVCAR-5, > 100 µM (inactive); in the assay on OVCAR-8 it was 59.7 µM (inactive). The GI50 with SK-MEL-5 is 18.1 µM (inactive); with U-251, 35.4 µM (inactive).

With `O=[N+]([O-])c1ccc(N/N=C/c2ccc(OCCCCCCCCCCCO)cc2)c([N+](=O)[O-])c1`, the GI50 in the assay with A549 is 5.96 µM (inactive); in the assay with ACHN, 9.2 µM (inactive); in the assay on CCRF-CEM it was 3.91 µM (inactive); in the assay with COLO 205, 2.01 µM (inactive); with DU-145 it was 19.7 µM (inactive); in the assay on HOP-92, 4.82 µM (inactive). Also, the GI50 with Hs-578T is 1.32 µM (inactive); in the assay with IGROV-1, 6.05 µM (inactive); with KM12 it was 2.75 µM (inactive); with LOX IMVI, 7.64 µM (inactive); with MCF7 it was 6.05 µM (inactive); with MDA-MB-435, 2.48 µM (inactive). The GI50 is 29.3 µM (inactive) with MOLT-4; 6.37 µM (inactive) in the assay on NCI-H226; 2.5 µM (inactive) with NCI-H460; 30.3 µM (inactive) in the assay on OVCAR-3; 14.8 µM (inactive) in the assay on OVCAR-5; 2.71 µM (inactive) in the assay with OVCAR-8. In addition, the GI50 in the assay on SK-MEL-5 is 1.77 µM (inactive); in the assay with U-251, 2.37 µM (inactive).

The values above are taken from ChEMBL document CHEMBL1201862, “PubChem BioAssay data set” (2004).
